What was measured:
Assay type in all cases: cell-based, human
Klf2 = Klf2 mRNA by RT-qPCR in TM cells
Protocol: Peripheral Blood Mononuclear Cells (PBMCs) from healthy individuals (New York Blood Center, New York, N.Y.) were prepared using Ficoll-paque plus (GE Amersham, Uppsala, Sweden). Whole blood samples from rheumatoid arthritis patients were purchased from Bioreclamation (New York, N.Y.) and were processed similar to healthy donor blood. All healthy donor and patient samples were consented prior to purchase, were none-identifiable and approved by institutional human subjects board. CD4^+ T cells were isolated using Dynal CD4 Positive Isolation Kit (Invitrogen, Carlsbad, Calif.) directly from purified PBMCs and were >99% pure. […] TM cells were activated either by anti-CD3 and anti-CD28 (aCD3/aCD28) coated beads (1:4 beads:cells ratio) for 18-24 hours, or by Phorbol 12-myristate 13-acetate (PMA) and ionomycin for 4 hours and further FACS sorted based on CCR6 and IL-17 expression into CCR6^− IL-17^−, CCR6^+IL-17^+, or CCR6^+IL-17^− subsets (as determined by secretion assay labeling, see below). […]
Purified T cells (1×10^5) were snap frozen in liquid nitrogen for total RNA isolation. […] The extracted RNA was then reverse transcribed into cDNA and quantified using Taqman Cell to CT kit (Applied Biosystems, Carlsbad, Calif.). […] Data was acquired and analyzed on ABI 7500 sequence detection system. […]

Rorc and Foxp3 = Rorc and Foxp3 mRNA by RT-qPCR in CCR6+/- cells; conditions: IL-7 medium 7 days, then inhibitor for 2 days
Protocol: Peripheral Blood Mononuclear Cells (PBMCs) from healthy individuals (New York Blood Center, New York, N.Y.) were prepared using Ficoll-paque plus (GE Amersham, Uppsala, Sweden). Whole blood samples from rheumatoid arthritis patients were purchased from Bioreclamation (New York, N.Y.) and were processed similar to healthy donor blood. All healthy donor and patient samples were consented prior to purchase, were none-identifiable and approved by institutional human subjects board. […] Sorted cells (>99% pure) were cultured in serum-free Xvivo-15 medium (Lonza, Wakersville, Md.) at 37° C. and 5% CO2 for 6-7 days prior to restimulation with PMA and ionomycin (see below). […]). […] In the experiments using PI-3K signaling inhibitors, cells were treated with PI-3K specific inhibitor, LY294002 (EMD, Gibbstown, N.J.), or Akt specific inhibitor, AKTi-1/2 (EMD), for 2 days before PMA and Ionomycin restimulation. Purified T cells (1×10^5) were snap frozen in liquid nitrogen for total RNA isolation. […] The extracted RNA was then reverse transcribed into cDNA and quantified using Taqman Cell to CT kit (Applied Biosystems, Carlsbad, Calif.). […] Data was acquired and analyzed on ABI 7500 sequence detection system. Quantitative real-time PCR data was analyzed by normalizing Ct values of genes of interest to the Ct values of the housekeeping gene b-Actin.

Akt phosphorylation = assay: Intracellular phospho-Akt (Ser473) staining
Protocol: (§1) Cells were stained as previously described (Oswald-Richter, et al., PLoS Pathogens 2007; 3: e58). For intracellular staining, T cell cultures were stimulated for 5 hours at 37° C. with PMA and Ionomycin and Golgistop (BD Biosciences). Stimulated cells were washed with PBS and stained with Fixable Viability Dye eFluor450 (eBioscience) to gate on live cells. Cells were then fixed and permeabilized by commercially available Foxp3 intracellular staining kit (eBioscience) or cytofix/cytoperm kit (BD Biosciences) as per manufacturer's protocol. Antibodies used for surface and intracellular staining included: CD45RO-[…]3), PE Cy7 or A700; […] IL-17A (IL-17)-Pacific Blue (Clone BL168), FITC or Percp Cy5.5; […]) or APC (eBioscience); […] FOXO1 rabbit monoclonal antibody; phospho-AKT ([…])-Alexa Fluor 488; Rabbit IgG isotype control-Alexa Fluor 488 (Cell Signaling, Danvers, Mass.); and CCR6-biotin (BD Biosciences). Secondary antibodies used were: Streptavidin-APC or […]5.5 (BD Biosciences), Goat anti mouse-APC (BD Biosciences), anti rabbit-Alexa 647 (Molecular Probes). All data were acquired on LSRII instrument (BD Biosciences) using FACSDiva software. Data analyses were done using Flowjo software (Treestar Inc, Ashland, Oreg.). For phospho-Akt staining, Jurkat cells were fixed with BD Cytofix buffer (BD Biosciences) pre-warmed to 37° C. for 10 minutes. […]

CCR6+ TM cells [1] = assay: PI-3K/Akt inhibitor treatment of IL-7-cultured CCR6+ TM cells, cytokine production after PMA and ionomycin
Protocol: Peripheral Blood Mononuclear Cells (PBMCs) from healthy individuals (New York Blood Center, New York, N.Y.) were prepared using Ficoll-paque plus (GE Amersham, Uppsala, Sweden). […] All healthy donor and patient samples were consented prior to purchase, were none-identifiable and approved by institutional human subjects board. CD4^+ T cells were isolated using Dynal CD4 Positive Isolation Kit (Invitrogen, Carlsbad, Calif.) directly from purified PBMCs and were >99% pure. CD4^+ T cells were sorted by FACS ARIA cell sorter (BD, San Jose, Calif.) into CD45RO^+ CD25^− memory T (TM) cells. TM cells were activated either by anti-CD3 and anti-CD28 (aCD3/aCD28) coated beads (1:4 beads:cells ratio) for 18-24 hours, or by Phorbol 12-myristate 13-acetate (PMA) and ionomycin for 4 hours and further FACS sorted based on CCR6 and IL-17 expression into CCR6^− IL-17^−, CCR6^+IL-17^+, or CCR6^+IL-17^− subsets (as determined by secretion assay labeling, see below). Sorted cells (>99% pure) were cultured in serum-free Xvivo-15 medium (Lonza, Wakersville, Md.) at 37° C. and 5% CO2 for 6-7 days prior to restimulation with PMA and ionomycin (see below). Culture conditions included: 10 U/mL recombinant human IL-2, (BD Biosciences, San Jose, Calif.), 20 ng/mL IL-7, 20 ng/mL IL-15, or 20 ng/mL IL-23 (all from R&D Systems, Minneapolis, Minn.). […] In the experiments using PI-3K signaling inhibitors, cells were treated with PI-3K specific inhibitor, LY294002 (EMD, Gibbstown, N.J.), or Akt specific inhibitor, AKTi-1/2 (EMD), for 2 days before PMA and Ionomycin restimulation.
Cells were stained as previously described (Oswald-Richter, et al., PLoS Pathogens 2007; 3: e58). For intracellular staining, T cell cultures were stimulated for 5 hours at 37° C. with PMA and Ionomycin and Golgistop (BD Biosciences). Stimulated cells were washed with PBS and stained with Fixable Viability Dye eFluor450 (eBioscience) to gate on live cells. Cells were then fixed and permeabilized by commercially available Foxp3 intracellular staining kit (eBioscience) or cytofix/cytoperm kit (BD Biosciences) as per manufacturer's protocol. Antibodies used for surface and intracellular staining included: CD45RO-FITC; CD25-PE; IFN-γ-FITC (clone 4S. B3), PE Cy7 or A700; IL-4-APC or PE; IL-17A (IL-17)-Pacific Blue (Clone BL168), FITC or Percp Cy5.5; IL-10-APC (Biolegend); IL-22-PE (R&D) or APC (eBioscience); IL-21-PE (clone 22URT1, eBioscience); FOXO1 rabbit monoclonal antibody; phospho-AKT (Ser473)-Alexa Fluor 488; Rabbit IgG isotype control-Alexa Fluor 488 (Cell Signaling, Danvers, Mass.); and CCR6-biotin (BD Biosciences). Secondary antibodies used were: Streptavidin-APC or PercpCy5.5 (BD Biosciences), Goat anti mouse-APC (BD Biosciences), anti rabbit-Alexa 647 (Molecular Probes). […]

TM cells = assay: Cell viability under PI-3K/Akt inhibitor treatment; conditions: 1-10 μg/mL
Protocol: as §1

[2] = tested on: resting CCR6+CD45RO+CD25- TM cells; assay: Cytokine expression in resting CCR6+ TM cells cultured with cytokines, no TCR stimulation (intracellular staining)
Protocol: (§2) Peripheral Blood Mononuclear Cells (PBMCs) from healthy individuals (New York Blood Center, New York, N.Y.) were prepared using Ficoll-paque plus (GE Amersham, Uppsala, Sweden). Whole blood samples from rheumatoid arthritis patients were purchased from Bioreclamation (New York, N.Y.) and were processed similar to healthy donor blood. All healthy donor and patient samples were consented prior to purchase, were none-identifiable and approved by institutional human subjects board. CD4^+ T cells were isolated using Dynal CD4 Positive Isolation Kit (Invitrogen, Carlsbad, Calif.) directly from purified PBMCs and were >99% pure. CD4^+ T cells were sorted by FACS ARIA cell sorter (BD, San Jose, Calif.) into CD45RO^+ CD25^− memory T (TM) cells. TM cells were activated either by anti-CD3 and anti-CD28 (aCD3/aCD28) coated beads (1:4 beads:cells ratio) for 18-24 hours, or by Phorbol 12-myristate 13-acetate (PMA) and ionomycin for 4 hours and further FACS sorted based on CCR6 and IL-17 expression into CCR6^− IL-17^−, CCR6^+IL-17^+, or CCR6^+IL-17^− subsets (as determined by secretion assay labeling, see below). Sorted cells (>99% pure) were cultured in serum-free Xvivo-15 medium (Lonza, Wakersville, Md.) at 37° C. and 5% CO2 for 6-7 days prior to restimulation with PMA and ionomycin (see below). […] To determine the fold expansion, CCR6^+IL-17^+ or CCR6 IL-17^− subsets were labeled with CFSE (Molecular Probes, Eugene, Oreg.) or eFluor 670 (eBioscience, San Diego, Calif.), respectively, as previously described (Oswald-Richter, et al., PLoS Biol 2004; 2: E198). […] In the experiments using PI-3K signaling inhibitors, cells were treated with PI-3K specific inhibitor, LY294002 (EMD, Gibbstown, N.J.), or Akt specific inhibitor, AKTi-1/2 (EMD), for 2 days before PMA and Ionomycin restimulation.
Cells were stained as previously described (Oswald-Richter, et al., PLoS Pathogens 2007; 3: e58). For intracellular staining, T cell cultures were stimulated for 5 hours at 37° C. with PMA and Ionomycin and Golgistop (BD Biosciences). Stimulated cells were washed with PBS and stained with Fixable Viability Dye eFluor450 (eBioscience) to gate on live cells. Cells were then fixed and permeabilized by commercially available Foxp3 intracellular staining kit (eBioscience) or cytofix/cytoperm kit (BD Biosciences) as per manufacturer's protocol. Antibodies used for surface and intracellular staining included: CD45RO-FITC; CD25-PE; IFN-γ-FITC (clone 4S. B3), PE Cy7 or A700; IL-4-APC or PE; IL-17A (IL-17)-Pacific Blue (Clone BL168), FITC or Percp Cy5.5; IL-10-APC (Biolegend); IL-22-PE (R&D) or APC (eBioscience); IL-21-PE (clone 22URT1, eBioscience); FOXO1 rabbit monoclonal antibody; phospho-AKT (Ser473)-Alexa Fluor 488; Rabbit IgG isotype control-Alexa Fluor 488 (Cell Signaling, Danvers, Mass.); and CCR6-biotin (BD Biosciences). Secondary antibodies used were: Streptavidin-APC or PercpCy5.5 (BD Biosciences), Goat anti mouse-APC (BD Biosciences), anti rabbit-Alexa 647 (Molecular Probes). All data were acquired on LSRII instrument (BD Biosciences) using FACSDiva software. Data analyses were done using Flowjo software (Treestar Inc, Ashland, Oreg.). For phospho-Akt staining, Jurkat cells were fixed with BD Cytofix buffer (BD Biosciences) pre-warmed to 37° C. for 10 minutes. After spinning down, the cells were permeablilzed with ice-cold BD Phosflow Perm buffer III (BD Biosciences) on ice for 30 minutes and were stained with phospho-antibody.

CCR6+ IL-17- TM cells = assay: IL-17 induction by cytokine culture of sorted, activated CCR6+IL-17- memory T cells (intracellular staining, FACS); conditions: cultured with the cytokine for 6 days; IL-23 in the absence of IL-2
Protocol: as §2
Manufacturer's protocols (Miltenyi Biotec) for labeling human and mouse IL-17 secreting cells were followed. Briefly, activated T-cells were washed in cold buffer (PBS+0.5% BSA+2 mM EDTA) and labeled with IL-17 catch reagent for 5 minutes on ice. […]

CCR6- TM cells [3] = assay: IL-17 induction by cytokine culture of sorted, activated CCR6-IL-17- memory T cells; conditions: cultured with the cytokine, restimulation
Protocol: (§3) Peripheral Blood Mononuclear Cells (PBMCs) from healthy individuals (New York Blood Center, New York, N.Y.) were prepared using Ficoll-paque plus (GE Amersham, Uppsala, Sweden). Whole blood samples from rheumatoid arthritis patients were purchased from Bioreclamation (New York, N.Y.) and were processed similar to healthy donor blood. All healthy donor and patient samples were consented prior to purchase, were none-identifiable and approved by institutional human subjects board. CD4^+ T cells were isolated using Dynal CD4 Positive Isolation Kit (Invitrogen, Carlsbad, Calif.) directly from purified PBMCs and were >99% pure. CD4^+ T cells were sorted by FACS ARIA cell sorter (BD, San Jose, Calif.) into CD45RO^+ CD25^− memory T (TM) cells. TM cells were activated either by anti-CD3 and anti-CD28 (aCD3/aCD28) coated beads (1:4 beads:cells ratio) for 18-24 hours, or by Phorbol 12-myristate 13-acetate (PMA) and ionomycin for 4 hours and further FACS sorted based on CCR6 and IL-17 expression into CCR6^− IL-17^−, CCR6^+IL-17^+, or CCR6^+IL-17^− subsets (as determined by secretion assay labeling, see below). Sorted cells (>99% pure) were cultured in serum-free Xvivo-15 medium (Lonza, Wakersville, Md.) at 37° C. and 5% CO2 for 6-7 days prior to restimulation with PMA and ionomycin (see below). […]

CCR6+ TM cells [4] = assay: Cytokine gene expression by quantitative nuclease protection assay (qNPA); conditions: IL-7 stimulation
CCR6- TM cells [5] = assay: Cytokine expression in resting CCR6- TM cells cultured with IL-7; conditions: stimulated with IL-7
Protocol: as §3

[6] = one week in IL-7, then inhibitor for 48 hours

O=c1[nH]c2ccccc2n1C1CCN(Cc2ccc(-c3nc4cc5nc[nH]c5cc4nc3-c3ccccc3)cc2)CC1 [AKTi-1/2]
Klf2 message expression in aCD3/aCD28-activated CCR6+ TM cells expanded in IL-2 (Klf2; IL-2 medium 2 weeks, inhibitor for 2 days): upregulates
Rorc and Foxp3 transcripts (Rorc and Foxp3): not affected
Akt phosphorylation (Ser473) in Jurkat cells (Akt phosphorylation; Jurkat T cells treated for 30 minutes): Inhibition of Akt phosphorylation
cytokine-dependent phosphorylation of Akt (Akt phosphorylation; TM cells, 1-10 μg/mL): downregulated
IL-17 and IL-22 production induced by IL-7 from CCR6+ TM cells (CCR6+ TM cells [1]; 5 μg/ml, Day 10): suppresses
expression of IFNγ (CCR6+ TM cells [1]; [6]): not affected
expression of IL-4 (CCR6+ TM cells [1]; [6]): less reduced
γc-mediated IL-17/IL-22 induction (CCR6+ TM cells [1]; one week in IL-7, then inhibitor for 48 hours, dose-dependent): repressed
cell viability (TM cells): without adversely affecting cell viability

O=c1cc(N2CCOCC2)oc2c(-c3ccccc3)cccc12 [LY294002]
cell viability (TM cells): without adversely affecting cell viability

IL-4: another γc-cytokine
IL-17/IL-22 (Th17 cytokine) expression in resting CCR6+ TM cells ([2]; stimulation with the single cytokine): did not promote Th17 cytokine production

IL-7: γc-cytokine (R&D Systems)
de novo IL-17 expression in CCR6+ IL-17- T cells (CCR6+ IL-17- TM cells): induced similar levels of IL-17 expression
Klf2 expression in resting CCR6+ TM cells (Klf2; stimulation with IL-7 alone): decreased
expression of IL-21 ([2]; CCR6+ or CCR6- TM cells upon stimulation with IL-7): slightly reduced
enhancement of IL-17 expression compared to the same cells ex vivo (day 0) ([2]; IL-7 for 10 days): more than 3 fold
enhancement of IL-22 expression compared to the same cells ex vivo (day 0) ([2]; IL-7 for 10 days): more than 3 fold
increase of double cytokine-producing cells (IL-22 or IFNγ co-expressed with IL-17) ([2]; IL-7 stimulation): more than 5 fold
impact on IFNγ production ([2]; resting CCR6+ or CCR6- TM cells cultured with IL-7): almost no impact
IL-17 expression in CCR6- TM cells (CCR6- TM cells [3]): neither IL-7 nor IL-15 induced IL-17 expression
Ccl20 expression (CCR6+ TM cells [4]): neither significantly induced
expression of non-Th17 related cytokines (Il2, Ifng, Tnf) (CCR6+ TM cells [4]): not influenced
IL-17 or IL-22 expression in CCR6- TM cells (CCR6- TM cells [5]): failed to express IL-17 or IL-22

IL-15: γc-cytokine (R&D Systems)
de novo IL-17 expression in CCR6+ IL-17- T cells (CCR6+ IL-17- TM cells): induced similar levels of IL-17 expression
IL-17 expression in CCR6- TM cells (CCR6- TM cells [3]): neither IL-7 nor IL-15 induced IL-17 expression

B1: IL-23: cytokine (R&D Systems) (protein, UniProt Q9NPF7 20-189; P29460 23-328, looked up)
Interleukin-23 subunit alpha: RAVPGGSSPAWTQCQQLSQKLCTLAWSAHPLVGHMDLREEGDEETTNDVPHIQCGDGCDPQGLRDNSQFCLQRIHQGLIFYEKLLGSDIFTGEPSLLPDSPVGQLHASLLGLSQLLQPEGHHWETQQIPSLSPSQPWQRLLLRFKILRSLQAFVAVAARVFAHGAATLSP
Interleukin-12 subunit beta: IWELKKDVYVVELDWYPDAPGEMVVLTCDTPEEDGITWTLDQSSEVLGSGKTLTIQVKEFGDAGQYTCHKGGEVLSHSLLLLHKKEDGIWSTDILKDQKEPKNKTFLRCEAKNYSGRFTCWWLTTISTDLTFSVKSSRGSSDPQGVTCGAATLSAERVRGDNKEYEYSVECQEDSACPAAEESLPIEVMVDAVHKLKYENYTSSFFIRDIIKPDPPKNLQLKPLKNSRQVEVSWEYPDTWSTPHSYFSLTFCVQVQGKSKREKKDRVFTDKTSATVICRKNASISVRAQDRYYSSSWSEWASVPCS
de novo IL-17 expression in CCR6+ IL-17- T cells (CCR6+ IL-17- TM cells): did not influence IL-17 expression
synergy with IL-7 to further induce IL-17 or IL-22 expression ([2]; IL-7 (20 ng/ml)+IL-23 (20 ng/ml) for 10 days): did not significantly synergize

Reference: patent publication US8992933B2, “Methods for activating T cells and modulating an immune response” (New York University, priority 2011, dated 2015)
